According to ChEMBL document CHEMBL3832026:
Values joined by “and” are separate entries in the source; they are usually repeats but may differ in a detail not shown here. Equal entries are not always repeated.

Experiments:
Type in all cases: ADME, organism-based
Homo sapiens [1] = assay: (§1) Mean pharmacokinetic parameters of Mycophenolic acid following multiple dose administration of 720 mg Mycophenolic acid delayed-release tablets to adult renal transplant patients on Cyclosporine, USP MODIFIED based immunosuppression; set-up: dose 720 mg, route oral; details: in vivo, po
[2] = as §1; set-up: dose 720 mg, route oral; details: human, in vivo, po, 720 mg
Homo sapiens [3] = assay: (§2) Pharmacokinetic parameters of Mycophenolic acid following administration of 360 to 2160 mg Mycophenolic acid delayed-release tablets to renal transplant patients on Cyclosporine, USP MODIFIED based immunosuppression.; details: in vivo, po
[4] = as §2; details: human, in vivo, po
Homo sapiens [5] = assay: (§3) Mean pharmacokinetic parameters of Mycophenolic acid following single oral administration of Mycophenolic acid delayed-release tablets to adult or pediatric (age range 5 to 16 years) renal transplant patients on Cyclosporine, USP MODIFIED based immunosuppression; set-up: dose 450 mg/m-2, dose 1 g, dose 720 mg, route oral; details: in vivo
[6] = as §3; set-up: dose 450 mg/m-2, dose 1 g, dose 720 mg, route oral; details: human, in vivo

## COc1c(C)c2c(c(O)c1C/C=C(\C)CCC(=O)O)C(=O)OC2 [MYCOPHENOLIC ACID]
Homo sapiens [1]
  AUC(0-12): 57.4 mcg.hr/mL [middle of 6 runs]
  Cmax: 26.2 mcg/mL [middle of 5 runs]
  Tmax: 1.5 h and 2.5 h and 1.8 h
[2]
  Tmax: 2 h
Homo sapiens [3]
  Vd: 112 L
  Vss: 54 L
[4]
  CL/F: 140 mL/min
Homo sapiens [5]
  AUC(0 to inf): 66500 ng·h/mL
  Cmax: 26100 ng/mL
  Tmax: 2 h
Homo sapiens [5]; dosed compound id 90, dosed compound name MYCOPHENOLATE MOFETIL, regimen Single dose, tissue Plasma
  AUC(0-48): 48300 ng·h/mL
[6]
  Cmax: 36300 ng/mL
  Tmax: 2.5 h
[6]; dosed compound id 90, dosed compound name MYCOPHENOLATE MOFETIL, regimen Single dose, tissue Plasma, read-out: AUC(0-48)
  AUC: 42700 ng·h/mL
[6]; read-out: AUC(0 to inf)
  AUC: 74300 ng·h/mL
